Laboratory results taken from ChEMBL document CHEMBL1156904, “Part II: piperazinyl-glutamate-pyridines as potent orally bioavailable P2Y12 antagonists for inhibition of platelet aggregation” (Bioorg Med Chem Lett, 2010).
pIC50, pKi: −log10 of the molar value.

Experiments:
[1] = biological target: P2Y purinoceptor 12 (Homo sapiens, UniProt Q9H244); assay: Inhibition of human P2Y12 receptor expressed in CHO cells
[2] = Metabolic stability in human microsomes; format: ADME, Microsome
[3] = Antiplatelet activity in human platelet rich plasma assessed as inhibition of ADP-induced platelet aggregation; format: functional
[4] = Antiplatelet activity in human platelet rich plasma assessed as inhibition of ADP-induced platelet aggregation relative to AZD-6140; format: functional
[5] = Metabolic stability in rat microsomes; format: ADME, Microsome

Chain of P2Y purinoceptor 12 (Q9H244 whole entry): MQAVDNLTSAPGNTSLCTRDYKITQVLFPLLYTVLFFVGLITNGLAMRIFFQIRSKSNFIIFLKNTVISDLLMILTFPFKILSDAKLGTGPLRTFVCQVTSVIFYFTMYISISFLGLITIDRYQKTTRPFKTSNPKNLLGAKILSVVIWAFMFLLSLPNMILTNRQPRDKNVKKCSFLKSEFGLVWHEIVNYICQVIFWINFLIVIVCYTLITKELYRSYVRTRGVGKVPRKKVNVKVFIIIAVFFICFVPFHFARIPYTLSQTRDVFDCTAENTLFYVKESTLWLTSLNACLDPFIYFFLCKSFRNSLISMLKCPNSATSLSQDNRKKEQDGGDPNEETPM

Compound	pKi [1]	Stability [2]	pIC50 [3]	fold change (FC) [4]	Stability [5]
CCCCCOC(=O)N1CCN(C(=O)[C@H](CCC(=O)O)NC(=O)c2cc(N3CCN(CC(N)=O)CC3)cc(-c3ccccc3)n2)CC1	8.77	Stable	6.29	1.8	Stable
CCCCCOC(=O)N1CCN(C(=O)[C@H](CCC(=O)O)NC(=O)c2cc(N3CC[C@H](C(=O)N(C)C)C3)cc(-c3ccccc3)n2)CC1	7.59	Stable	5.52	4.1	Stable
CCCCCOC(=O)N1CCN(C(=O)[C@H](CCC(=O)O)NC(=O)c2cc(N3CC(N4CCOCC4)C3)cc(-c3ccccc3)n2)CC1	8.48	Stable	5.85		Stable
CCCCCOC(=O)N1CCN(C(=O)[C@H](CCC(=O)O)NC(=O)c2cc(N3CCC(CN(C)C)CC3)cc(-c3ccccc3)n2)CC1	8.72	Stable	6.00	1.3	Stable
CCCCCOC(=O)N1CCN(C(=O)[C@H](CCC(=O)O)NC(=O)c2cc(N3CCN(C(=O)N(C)C)CC3)cc(-c3ccccc3)n2)CC1	8.23	Stable	5.52	3.6	Stable
CCCCOC(=O)N1CCN(C(=O)[C@H](CCC(=O)O)NC(=O)c2cc(N3CCC(CN4CCCC4=O)CC3)cc(-c3ccccc3)n2)CC1	9.10	Stable	5.96	1.5	Stable
CCCCCCOC(=O)N1CCN(C(=O)[C@H](CCC(=O)O)NC(=O)c2cc(N3CCC(C(=O)N(CC)CC)CC3)cc(-c3ccccc3)n2)CC1	8.32	Stable	6.09	1.7	Stable
CCCCCOC(=O)N1CCN(C(=O)[C@H](CCC(=O)O)NC(=O)c2cc(N3CCN(CC(=O)N4CCCC4)CC3)cc(-c3ccccc3)n2)CC1	8.28	Stable	5.80	2.2	Stable
CCCCOC(=O)N1CCN(C(=O)[C@H](CCC(=O)O)NC(=O)c2cc(N3CCC(C(=O)NCC)CC3)cc(-c3ccccc3)n2)CC1	9.17	Stable	5.92	0.9	Stable
CCCCCOC(=O)N1CCN(C(=O)[C@H](CCC(=O)O)NC(=O)c2cc(N3CCN(CCN(C)C)CC3)cc(-c3ccccc3)n2)CC1	8.07	Stable	6.29	0.7	Stable
CCCCOC(=O)N1CCN(C(=O)[C@H](CCC(=O)O)NC(=O)c2cc(N3CCC(CNCC)CC3)cc(-c3ccccc3)n2)CC1	8.42	Stable	5.89	1.4	Stable
CCCCOC(=O)N1CCN(C(=O)[C@H](CCC(=O)O)NC(=O)c2cc(N3CCC(CN(C)C)CC3)cc(-c3ccccc3)n2)CC1	8.49	Stable	6.05	1.3	Stable
CCCCCOC(=O)N1CCN(C(=O)[C@H](CCC(=O)O)NC(=O)c2cc(N3CC(O)C3)cc(-c3ccccc3)n2)CC1	8.60	Stable	5.07	9.2	Stable
CCCCCOC(=O)N1CCN(C(=O)[C@H](CCC(=O)O)NC(=O)c2cc(N3CC[C@@H](C(=O)N(CC)CC)C3)cc(-c3ccccc3)n2)CC1	8.59	Stable	5.18	5	Stable
CCCCOC(=O)N1CCN(C(=O)[C@H](CCC(=O)O)NC(=O)c2cc(N3CCC(CN(CC)CC)CC3)cc(-c3ccccc3)n2)CC1	8.12	Stable	5.62	2.1	Stable
CCCCCOC(=O)N1CCN(C(=O)[C@H](CCC(=O)O)NC(=O)c2cc(N3CCN(CCOC)CC3)cc(-c3ccccc3)n2)CC1	8.08	Stable	5.96	2.1	Stable
CCCCCOC(=O)N1CCN(C(=O)[C@H](CCC(=O)O)NC(=O)c2cc(N3CC(C(N)=O)C3)cc(-c3ccccc3)n2)CC1	9.19	Stable	5.72		Stable
CCCCCOC(=O)N1CCN(C(=O)[C@H](CCC(=O)O)NC(=O)c2cc(N3CCC(CCN4CCCC4)CC3)cc(-c3ccccc3)n2)CC1	8.10	Stable	6.12	0.59	Stable
CCCCCOC(=O)N1CCN(C(=O)[C@H](CCC(=O)O)NC(=O)c2cc(N3CCCC(OC)C3)cc(-c3ccccc3)n2)CC1 (some centres undefined)	7.51	Stable	5.28	6.3	Stable

Compound	pKi [1]	Stability [2]	pIC50 [3]	fold change (FC) [4]	Stability [5]
CCCCCOC(=O)N1CCN(C(=O)[C@H](CCC(=O)O)NC(=O)c2cc(N3CCN(CCS(C)(=O)=O)CC3)cc(-c3ccccc3)n2)CC1	8.05	Stable	6.17	0.81	Stable
CCCCCOC(=O)N1CCN(C(=O)[C@H](CCC(=O)O)NC(=O)c2cc(N3CCN(CCOCCC)CC3)cc(-c3ccccc3)n2)CC1	8.20	Stable	5.82	3.1	Stable
CCCCCOC(=O)N1CCN(C(=O)[C@H](CCC(=O)O)NC(=O)c2cc(N3CCCC(C(N)=O)C3)cc(-c3ccccc3)n2)CC1 (some centres undefined)	7.77	Stable	5.11	7.3	Stable
CCCOC(=O)N1CCN(C(=O)[C@H](CCC(=O)O)NC(=O)c2cc(N3CCC(C(=O)N(CC)CC)CC3)cc(-c3ccccc3)n2)CC1	7.92	Stable	5.70	2.3	Stable
CCCCCOC(=O)N1CCN(C(=O)C(CCC(=O)O)NC(=O)c2cc(N3CCC(O)C3)cc(-c3ccccc3)n2)CC1 (mixture of isomers)	7.89	Stable	5.15	3.9	Stable
CCCCOC(=O)N1CCN(C(=O)[C@H](CCC(=O)O)NC(=O)c2cc(N3CCC(C(=O)NC(C)C)CC3)cc(-c3ccccc3)n2)CC1	8.37	Stable	6.21	0.82	Stable
CCCCCOC(=O)N1CCN(C(=O)[C@H](CCC(=O)O)NC(=O)c2cc(N3CCC(CCN)CC3)cc(-c3ccccc3)n2)CC1	8.55	Stable	6.07	0.66	Stable
CCCCCOC(=O)N1CCN(C(=O)[C@H](CCC(=O)O)NC(=O)c2cc(N3CCC(CNC)CC3)cc(-c3ccccc3)n2)CC1	8.82	Stable	6.15	0.99	Stable
CCCCCOC(=O)N1CCN(C(=O)[C@H](CCC(=O)O)NC(=O)c2cc(N3CC[C@H](C(=O)N(CC)CC)C3)cc(-c3ccccc3)n2)CC1	8.77	Stable	5.32	4.6	Stable
CCCCCOC(=O)N1CCN(C(=O)[C@H](CCC(=O)O)NC(=O)c2cc(N3CCN(C(N)=O)CC3)cc(-c3ccccc3)n2)CC1	8.20	Stable	5.72	1.8	Stable
CCCCCOC(=O)N1CCN(C(=O)[C@H](CCC(=O)O)NC(=O)c2cc(N3CCCC(CNC(C)=O)C3)cc(-c3ccccc3)n2)CC1 (some centres undefined)	8.00	Stable	5.54	3.4	Stable
CCCCCOC(=O)N1CCN(C(=O)[C@H](CCC(=O)O)NC(=O)c2cc(N3CCC(C(=O)N(C)C)CC3)cc(-c3ccccc3)n2)CC1	9.01	Stable	6.22	0.72	Stable
CCCCCOC(=O)N1CCN(C(=O)[C@H](CCC(=O)O)NC(=O)c2cc(N3CCC(CCOC)CC3)cc(-c3ccccc3)n2)CC1	7.96	Stable	5.57	3.5	Stable
CCCCCOC(=O)N1CCN(C(=O)[C@H](CCC(=O)O)NC(=O)c2cc(N3CC(C(=O)NCC)C3)cc(-c3ccccc3)n2)CC1	8.70	Stable	5.74	1.5	Stable
CCCCCOC(=O)N1CCN(C(=O)[C@H](CCC(=O)O)NC(=O)c2cc(N3CC(N(C)C)C3)cc(-c3ccccc3)n2)CC1	8.26	Stable	5.57		Stable
CCCCCOC(=O)N1CCN(C(=O)[C@H](CCC(=O)O)NC(=O)c2cc(N3CCCC(COC)C3)cc(-c3ccccc3)n2)CC1 (some centres undefined)	7.66	Stable	4.96		Stable
CCCCCOC(=O)N1CCN(C(=O)[C@H](CCC(=O)O)NC(=O)c2cc(N3CC(C(=O)NC)C3)cc(-c3ccccc3)n2)CC1	8.77	Stable	5.70		Stable
CCCCCOC(=O)N1CCN(C(=O)[C@H](CCC(=O)O)NC(=O)c2cc(N3CC(OC)C3)cc(-c3ccccc3)n2)CC1	8.70	Stable	< 5.00		Stable
